Test system: Trichoderma reesei
Assay: T. reesei cell kill, CFU count on PDA plates
Format: cell-based
Details: pH 4, 24 hours, 40° C.
Method: Sodium benzoate was added to separate T. reesei aliquots to a final concentration of 2.5 g/L sodium benzoate or 5 g/L sodium benzoate. The aliquots were then adjusted to pH 4 and incubated for 24 hours at 40° C. After 24 hours of incubation all aliquots were pH adjusted to 4.8 using 10% (w/w) sodium hydroxide. Each aliquot was then serially diluted with sterile water, spread plated onto PDA, and incubated at 25° C. The incubated PDA plates were then counted for CFU.
The aliquots were then adjusted to pH 4 and incubated for 24 hours at 40° C. After 24 hours of incubation all aliquots were pH adjusted to 4.8 using 10% (w/w) sodium hydroxide. Each aliquot was then serially diluted with sterile water, spread plated onto PDA, and incubated at 25° C. The incubated PDA plates were then counted for CFU.

`O=C([O-])c1ccccc1.[Na+]` [sodium benzoate] was tested, and the “log reduction of viable cells” value (2.5 g/L sodium benzoate) was 5 log, the “CFU present after incubation” value (5 g/L sodium benzoate) was “less than 10 CFU” and the “log reduction of viable cells” value (5 g/L sodium benzoate) was 7 log.
